Source: patent publication US20160089371A1, “Combination of Kinase Inhibitors and Uses Thereof” (INTELLIKINE, LLC, priority 2013, published 2016)

Experiments:
[1] = test system: Akt and S6 phosphorylation; assay: Western blot of PI3K pathway phosphorylation (Akt, S6) in cancer cells; assay type: cell-based
PTEN mutant cells = assay: Western blot of Akt, S6, 4EBP phosphorylation in PTEN mutant cells; assay type: cell-based; conditions: PTEN-mutant cell line; FIG. 12B
[2] = test system: PI3K pathway in MDA-MB-361, MDA-MB-453 and SK-Br3 cells; assay: PI3K pathway Western blot in cell lines with elevated PI3Kα activity; assay type: cell-based, human; conditions: 2 h treatment; MDA-MB-361, MDA-MB-453, SK-Br3
Experimental: Cells comprising one or more mutations in PI3Kα, including but not limited to breast cancer cells (e.g., MDA-MB-361, T47D, SKOV-3), and cells comprising one or more mutations in PTEN including but not limited to prostate cancer cells (e.g., PC3), are typically grown in cell growth media such as DMEM supplemented with fetal bovine serum and/or antibiotics, and grown to confluency. Cells are then treated with various concentrations of test compound for about 2 hours and subsequently lysed in cell lysis buffer. Lysates are subjected to SDS-PAGE followed by Western blot analysis to detect downstream signaling markers, including but not limited to pAKT(S473), pAKT(T308), pS6, and p4E-BP1.
MDA-MB-361(PIK3CA-E545K), MDA-MB-453 (PIK3CA-H1047R), and SK-Br3 (Her2) cells were treated with various concentrations of Compound A for 2 h and subsequently lysed. Lysates were subjected to SDS-PAGE followed by Western blot analysis as described above to detect downstream pathway markers.

[3] = test system: MDA-MB-361 (PI3Kα/HER2 carcinoma) tumors; assay: In vivo efficacy in xenogenic mouse model of breast cancer; parameters: species or system nude mice; conditions: 70 mg/kg Pan-PI3K inhibitor; 60 mg/kg compound A
Experimental: Blood glucose was monitored periodically following administration of treatment.
Treatment of tumors (MDA-MB-361) with compounds was discontinued on Day 30. Tumors were measured every 2-5 days.

[4] = test system: 786-O cells (non-mutated PI3Kα) tumors; assay: 786-O human kidney carcinoma xenograft; assay type: in vivo, mice; conditions: Compound A orally 60 and 120 mg/kg; 1 mg/kg (QD) oral solution
Experimental: Compound A was administered orally at 60 and 120 mg/kg and compound A was administered orally as a solution at 1 mg/kg (QD). For example, a PI3Kα inhibitor is compared to a kinase inhibitor with specificity for mTor. […] FIG. 6C also provides biochemical potency data for the two compared inhibitors. PI3 Kinase α, β, γ and δ activity was assayed using the PI3 Kinase HTRF® assay kit (Millipore Corporation). Purified recombinant PI3Kα, PI3Kβ, PI3Kγ and PI3Kδ were obtained from Millipore Corporation. […] Emission ratios were converted into percent inhibitions and imported into GraphPad Prism software. […] IC50 values were determined using a nonlinear regression model available in GraphPad Prism 5.

[5] = Steady-state blood glucose (Example 42); assay type: in vivo, Mus musculus; conditions: Compound B 0.3 mg/kg, Compound A 60 mg/kg, alone or combined; returned to normal within an hour of dosing
Experimental: Blood glucose levels were measured via a tail knick using a FreeStyle® handheld blood glucose monitor (Abbott Laboratories) at 5, 15, 30, 60, and 90 minutes after the last dose (Day 29).

In the case of `Nc1nc2cc(-c3ccc4ncc(C(=O)N5CCOCC5)n4c3)ccc2o1` [Compound A], the “inhibition of Akt phosphorylation at serine 473” value ([1]; FIG. 12A) is reported as “inhibition of Akt phosphorylation at serine 473”, the “inhibition of the PI3K pathway in cell lines with elevated PI3K α activity” value ([1]; MDA-MB-361, MDA-MB-453, SKBr3 breast cancer cells, FIG. 11) is reported as “inhibition of the PI3K pathway” and the “inhibition of Akt phosphorylation at serine 473” value (PTEN mutant cells) is reported as “reduced inhibition”. The “inhibition of the PI3K pathway (Western blot, FIG. 11)” value [2] was “inhibition of the PI3K pathway”, the “tumor weight in breast cancer model (FIG. 9 left panel)” value [3] was “reduction in tumor weight” and the “inhibition of kinase activity and tumor growth in 786-O model (FIG. 6)” value [4] was “decreased activity”. For the same molecule, the “steady-state blood glucose level after the last dose (Day 29)” value [5] was “slight increase”.
